Assay results: patent US6379713B1, “Method of treating an itch with iodine” (priority 2001, dated 2002)

Columns and labels:
itch = conditions: cited from earlier work; for time necessary to stop the immediate itch: topical application
itching skin = experiment: rubbing iodine condensate on cotton fiber against itching skin; format: in vivo, mammal
Protocol: A concentration of iodine in the range of 0.01 to 2 mg/inch^2 of skin surface is found to provide analgesia. An applicator useful for carrying and discharging the analgesic element, in its amorphous form, has been made by loading cotton fiber over a bed of hard iodine crystals sitting at the bottom of a fuming chamber. The bottom of the fiber stack is placed in contact to the top of the iodine bed. By warming the crystals, the reservoir fiber is charged with a fine, soft, rising tan colored sublimate of the hard crystal. At a temperature of 35.deg.C., 2 days is sufficient to charge a fiber with sublimated iodine in a range, by weight, of 1 to 30 mg/g of the wipe fiber. The charged fiber has a tan color, appearing as of having been dipped in liquid iodophor and then dried. Individual crystals of iodine are not readily observed and the charged wipe feels softer than the original fiber. On dipping the charged fiber in water, its tan coloration disappears.
Itching skin is found to be efficiently treated by rubbing the cotton fiber coated with condensed iodine against the itch.
The skin is not irritated by treatment from a wipe preferably comprising about 10 mg of condensate per gram of fiber comprising cotton. […] A preferred treatment supplies about 0.05 to 1 mg/inch^2 of skin. An iodine concentration of over 2 mg/inch^2 of skin begins to cause pain, while still relieving the itch.

**Q.** With `CCOC(=O)c1ccc(N)cc1` [benzocaine] as the molecule, how does the “time necessary to stop the immediate itch” value (itch) read?
**A.** Its value is no more than 5 min.

**Q.** With `CN(C)CCOC(c1ccccc1)c1ccccc1` [diphenhydramine] as the molecule, how does the “time necessary to stop the immediate itch” value (itch) read?
**A.** Its value is “about 15 minutes”.

**Q.** For `COC1=CC(=O)C[C@@H](C)[C@]12Oc1c(Cl)c(OC)cc(OC)c1C2=O` [griseofulvin], which “time necessary to stop the immediate itch (time to disinfect)” value (itch; antibiotic composition) is on record?
**A.** The value was “several days”.

**Q.** For `CC(=O)OCC(=O)[C@@]1(O)CC[C@H]2[C@@H]3CCC4=CC(=O)CC[C@]4(C)[C@H]3[C@@H](O)C[C@@]21C` [hydrocortisone acetate], which “time necessary to stop the immediate itch” value (itch) is on record?
**A.** Its value is “about 15 minutes”.

**Q.** With `II` [iodine] as the molecule, how does the “time to relief from an itch after application” value (itching skin; amorphous tan condensate, single treatment) read?
**A.** The value was no more than 1 min.

**Q.** What about the “time to relieve the urge to scratch after application” value (itching skin; cotton fiber coated with condensed iodine, rubbed in forceful back and forth motion) of the same molecule?
**A.** The value was “within three minutes”.

**Q.** And the “iodine concentration on skin that begins to cause pain” value (itching skin; while still relieving the itch)?
**A.** The value was “over 2 mg/inch^2”.

**Q.** And the skin irritation (itching skin; wipe with about 10 mg of condensate per gram of cotton fiber)?
**A.** Its skin irritation is “not irritated”.
